Test results taken from patent US3937832A, “Esters of 2,2-diphenyl-cyclopropane-carboxylic acids as cough suppressants” (Societe anonyme dite: Hexachimie, priority 1974, dated 1976).

What was measured:
rats = assay: Acute toxicity, lethal doses two days after intraperitoneal treatment; type: in vivo; settings: rat
Method: (§1) The products tested are dissolved in a […] sodium chloride solution or, if they are insoluble in this solution, suspended using "Tween 80" (for oral and intraperitoneal administration) or dissolved in polyethylene glycol 300 (for intravenous administration).
The acute toxicity is determined on batches, each of two rats. The doses administered extend from 4 to 512 mg./kg. in geometrical progression, constant ratio 2.
Table II below gives the 0 to 100 (%) lethal doses, two days after treatment, in mg./kg. administered intraperitoneally.

[1] = test system: phenylbenzoquinone-induced reactions (stretching of the body); assay: Antalgic activity: inhibition of phenylbenzoquinone-induced stretching; type: in vivo; settings: Mus musculus, 1 h, read-out: percentage inhibition relative to control animals; for inhibition in vivo at 16 mg/kg / inhibition in vivo at 64 mg/kg / inhibition in vivo at 32 mg/kg: mice, oral; for inhibition in vivo at 128 mg/kg: po
Method: as §1
The products to be tested are administered orally to batches of six mice each weighing 19-21 g. One hour afterwards, 0.20 ml. of an aqueous-alcoholic solution containing 0.02% of phenylbenzoquinone (phenylbenzoquinone: 20 mg, 96% alcohol; 5 ml; water q.s.p. 100 ml) is injected intraperitoneally. The number of reactions (stretching of the body) from the 5th to the 10th minutes following the injection of phenylbenzoquinone is counted.
Table IV gives the percentage inhibition relative to control animals. __________________________________________________________________________ Compound of Example No. Dose, mg/kg 1 2 3 administered and 4 5 7 9 10 11 12 13 14 15 16 18 19 20 orally 6 17 8 __________________________________________________________________________ 16 10 57 -- 23 -- 25 14 21 22 45 24 35 29 40 43 3 26 32 -- 38 37 -- 0 -- -- -- -- -- -- -- -- -- -- -- -- 64 31 63 -- 17 -- 25 19 46 38 36 24 38 29 28 55 26 38 128 -- -- 41 -- 19 -- -- -- -- -- -- -- -- -- -- -- -- __________________________________________________________________________

[2] = test system: subjects suffering from chronic bronchitis; assay: Clinical experiments on subjects suffering from chronic bronchitis; type: in vivo, human; settings: subjects with chronic bronchitis
Method: Clinical experiments were also carried out with the product of Example 1 on subjects suffering from chronic bronchitis.

[3] = test system: cough reaction to stimulation of the upper laryngeal nerves; assay: Anti-tussive activity: Domenjoz method (stimulation of upper laryngeal nerves); type: in vivo, cat; design: key: 0: inactive; +: marked diminution of cough; ++: suppression of cough for 5 to 15 minutes; +++: suppression of cough for more than 15 minutes; settings: anaesthetised cats, intravenous (femoral vein)
Method: as §1
Cats are anaesthetised by intraperitoneal injection of 30 mg./kg. of sodium mebubarbital. The arterial pressure is measured on the femoral artery by a Statham P 23 Db gauge. A tracheotomy is carried out; a Y-shaped cannula allows a part of the air breathed out to be branched off onto a Statham PM 6 gauge; the cardiac rhythm is measured by integration of the QRS complexes of the electrocardiogram. All these measurements are amplified and recorded on a Beckman Dynograph. The two upper laryngeal nerves are very carefully dissected and stimulated for 10 seconds by a surging current generated by a Hugo Sachs Stimulator I: voltage 3 volts, duration […], frequency 50 cycles/second. The test products are injected into the femoral vein. The first stimulation takes place 5 minutes after administration of the product and then every 5 minutes until the reaction returns to the initial amplitude. Each nerve is stimulated in turn (left-hand nerve: 5, 15, 25 minutes etc; right-hand nerve 10, […] minutes etc. after treatment).
+ marked diminution of cough
++ suppression of cough for 5 to 15 minutes
+++ suppression of cough for more than 15 minutes

[4] = Solubility under the conditions of the local anaesthetic test; type: physicochemical; settings: sodium chloride solution, pH of 6 to 7
Method: This is investigated by the technique of Bulbring and Wajda. The backs of male guinea pigs weighing 350-450 g. are shaved with an electric razor. 0.1 ml. of a solution of the compounds to be tested is injected into the dermis (only those products which are soluble in the sodium chloride solution and give a pH of 6 to 7 are examined). Four points spaced 2 cm apart are marked on the skin, the product being administered at two of these and the solvent being administered at the remaining two. The skin reflex is examined by pricking each point six times with a mounted bristle. The number of positive reactions is counted and an inhibition percentage is calculated from the total number of positive reactions over the course of 30 minutes. Table V gives the inhibition percentages measured as a function of the concentrations of the solutions. The compounds of Examples 7, 18 and 19 are insoluble under the experimental conditions.

Row | Structure (SMILES) | LD0 (rats) [mg/kg] | LD100 (rats) [mg/kg] | inhibition in vivo at 16 mg/kg [1] [%] | inhibition in vivo at 64 mg/kg [1] [%] | effect on cough [2] | facilitation of expectoration [2] | sensation of feeling better [2] | reduction in expectoration ([2]; "the latter" = expectoration) | Rating (anti-tussive activity) [3] | inhibition in vivo at 32 mg/kg [1] [%] | inhibition in vivo at 128 mg/kg [1] [%] | solubility under the experimental conditions [4]
1 | O=C(OCCN1CCCCC1)C1CC1(c1ccccc1)c1ccccc1 (stereo not drawn) [Example 1, β-Piperidino-ethyl ester of 2,2-diphenyl-cyclopropane-carboxylic acid] | 64 | 128 | 10 | 31 | suppression of the cough | facilitation of expectoration | a sensation of feeling better | a reduction in the latter |  |  |  | 
2 | O=C(OCCOCCN1CCCC1)C1CC1(c1ccccc1)c1ccccc1 (centres unmarked) [Example 2, 2-(2'-pyrrolidino-ethoxy)-ethyl ester of 2,2-diphenyl-cyclopropane carboxylic acid] | 32 | 128 | 57 | 63 |  |  |  |  | + | 38 |  | 
3 | O=C(OCCN1CCOCC1)C1CC1(c1ccccc1)c1ccccc1 (stereo not drawn) [Example 3, β-Morpholino-ethyl ester of 2,2-diphenyl-cyclopropane-carboxylic acid] | 128 | 256 |  |  |  |  |  |  |  | 37 | 41 | 
4 | CN(C)CCOC(=O)C1CC1(c1ccccc1)c1ccccc1 (centres unmarked) [Example 4] | 128 | 256 | 23 | 17 |  |  |  |  |  |  |  | 
5 | O=C(OCCN1CCCC1)C1CC1(c1ccccc1)c1ccccc1 (centres unmarked) [Example 5] | 128 | 256 |  |  |  |  |  |  |  | 0 | 19 | 
6 | O=C(OCCN1CCCCCC1)C1CC1(c1ccccc1)c1ccccc1 (centres unmarked) [Example 7] | 64 | 128 | 25 | 25 |  |  |  |  |  |  |  | insoluble
7 | CN1CCN(CCOC(=O)C2CC2(c2ccccc2)c2ccccc2)CC1 (centres unmarked) [Example 9] | 64 | 128 | 14 | 19 |  |  |  |  | + |  |  | 
8 | CC1CCCN(CCOC(=O)C2CC2(c2ccccc2)c2ccccc2)C1 (centres unmarked) [Example 10] | 64 | 256 | 21 | 46 |  |  |  |  |  |  |  | 
9 | CC1CCN(CCOC(=O)C2CC2(c2ccccc2)c2ccccc2)CC1 (centres unmarked) [Example 11] | 64 | 256 | 22 | 38 |  |  |  |  | + |  |  | 
10 | CC1CCCC(C)N1CCOC(=O)C1CC1(c1ccccc1)c1ccccc1 (centres unmarked) [Example 12] | 32 | 128 | 45 | 36 |  |  |  |  |  |  |  | 
11 | Cc1ccc(C2(c3ccc(C)cc3)CC2C(=O)OCCN2CCCC2)cc1 (centres unmarked) [Example 13] | 128 | 256 | 24 | 24 |  |  |  |  |  |  |  | 
12 | Cc1ccc(C2(c3ccc(C)cc3)CC2C(=O)OCCN2CCCCC2)cc1 (centres unmarked) [Example 14] | 256 | 512 | 35 | 38 |  |  |  |  |  |  |  | 
13 | O=C(OCCN1CCCCC1)C1CC1(c1ccc(Cl)cc1)c1ccc(Cl)cc1 (centres unmarked) [Example 15] | 128 | 256 | 29 | 29 |  |  |  |  | + |  |  | 
14 | COc1ccc(C2(c3ccc(OC)cc3)CC2C(=O)OCCN2CCCCC2)cc1 (centres unmarked) [Example 16] | 128 | 512 | 40 | 28 |  |  |  |  | + |  |  | 
15 | O=C(OCCOCCN1CCCCC1)C1CC1(c1ccccc1)c1ccccc1 (centres unmarked) [Example 18] | 64 | 256 | 43 | 55 |  |  |  |  |  |  |  | insoluble
16 | O=C(OCCOCCN1CCCCCC1)C1CC1(c1ccccc1)c1ccccc1 (centres unmarked) [Example 19] | 64 | 128 | 3 | 26 |  |  |  |  | + |  |  | insoluble
17 | CN1CCN(CCOCCOC(=O)C2CC2(c2ccccc2)c2ccccc2)CC1 (centres unmarked) [Example 20] | 64 | 128 | 26 | 38 |  |  |  |  | + |  |  | 
